Consider 41 compounds from the Deep4Chem optical property database.

Each structure is given as a SMILES string.

The nature of the data set: solvent given as SMILES.

On to `COc1cc(/C=C2\C=C(c3ccccc3)C=C2c2ccccc2)cc(OC)c1`, for which, under “in C1CCOC1”, the absorption maximum is recorded as 436 nm.

For the compound `CCCc1ccc(C#Cc2cc(C#Cc3ccc(CCC)cc3)c3ccc4c(C#Cc5ccc(CCC)cc5)cc(C#Cc5ccc(CCC)cc5)c5ccc2c3c54)cc1`, the absorption maximum (in ClCCl) is 470 nm.

With `N#Cc1c2nc3ccccn3c2nc2c1nc1ccccn12`, the absorption maximum runs as follows: (in C1CCCCC1) 410 nm; (in C1COCCO1) 425 nm; (in CC#N) 430 nm; (in CN(C)C=O) 435 nm; (in ClC(Cl)Cl) 425 nm.

Consider `O=Cc1c(O)c(-c2nc3ccccc3s2)cc2ccccc12`, for which the absorption maximum reads like this: (in C1CCOC1) 352 nm; (in CC#N) 349 nm; (in CC(C)=O) 352 nm; (in CCO) 349 nm; (in CCOC(C)=O) 352 nm; (in CN(C)C=O) 346 nm. Besides, the absorption maximum reads like this: (in CO) 349 nm; (in Cc1ccccc1) 358 nm; (in ClC(Cl)Cl) 352 nm; (in ClCCl) 352 nm.

For the compound `N#Cc1c(-n2c3ccc(I)cc3c3cc(I)ccc32)c(C#N)c(-n2c3ccc(I)cc3c3cc(I)ccc32)c(-n2c3ccc(I)cc3c3cc(I)ccc32)c1-n1c2ccc(I)cc2c2cc(I)ccc21`, the absorption maximum (in Cc1ccccc1) turned out to be 384 nm.

Compound `F[B-]1(F)n2c(ccc2-c2ccccc2)C(c2ccc(I)cc2)=C2C=CC(c3ccccc3)=[N+]21` showed an absorption maximum (in ClC(Cl)Cl) of 555 nm.

As for `CCCCCCCCCCCCCCCC[n+]1ccc(/C=C/c2ccc(N(C)C)cc2)cc1`, the absorption maximum was 463 nm (in C1COCCO1); 477 nm (in CC(C)=O); 481.2 nm (in CC(C)O); 454.6 nm (in CCCCCC); 487.1 nm (in CCCCO); 485.6 nm (in CCCO). The absorption maximum reads like this: (in CCO) 484.9 nm; (in CN(C)C=O) 475.3 nm; (in CO) 480.2 nm; (in CS(C)=O) 479 nm; (in Cc1ccccc1) 474.8 nm; (in ClC(Cl)(Cl)Cl) 467.2 nm. The absorption maximum reads like this: (in ClC(Cl)Cl) 493 nm; (in ClCCl) 515.2 nm; (in c1ccccc1) 476 nm.

Compound `N#CC1=c2cc3c4c(c2Oc2c1cc1c5c2CCCN5CCC1)CCC[N+]=4CCC3` gave an absorption maximum (in CCO) of 682 nm.

`COC(=O)c1ccc(C(=O)NC(C)(C)C)c2c1ccc1c3ccccc3c3ccccc3c12` came in with an absorption maximum (in ClCCl) of 336 nm.

Consider `CC(=O)c1ccc(-c2cccc3ncc(-c4ccccc4)n23)cc1`, for which, under “in ClCCl”, the absorption maximum came to 358 nm.

Under “in O”, `CC[n+]1nc2ccc(N(C)C)cc2c2cc(C)ccc21` showed an absorption maximum of 483 nm.

In turn, `c1ccc2c(c1)-c1ccccc1C21c2cc(-c3ccc(-n4c5ccccc5c5ccccc54)cc3)ccc2Sc2ccc(-c3ccc(-n4c5ccccc5c5ccccc54)cc3)cc21` had an absorption maximum (in ClCCl) of 341 nm.

The compound `c1ccc(-c2nc(-c3ccc(-c4nc(-c5ccccc5)c(-c5ccccc5)o4)cc3)oc2-c2ccccc2)cc1` displayed an absorption maximum (in C1COCCO1) of 358 nm.

Compound `O=C1NC(=O)c2ccc(N3CCOCC3)c3cccc1c23` yielded an absorption maximum (in ClC(Cl)Cl) of 394 nm.

With `COc1cc(-c2nc3c4cccnc4c4ncccc4c3[nH]2)c(OC)cc1/C=C/c1nc2ccccc2[nH]1`, the absorption maximum runs as follows: (in C1CCOC1) 401 nm; (in CC#N) 398 nm; (in CO) 391 nm; (in ClCCl) 400 nm.

With `CC1=CC(C)=[N+]2C1=C(c1ccc(N(C)C)cc1)c1c(C)cc(/C=C/c3ccc(N(C)C)cc3)n1[B-]2(F)F`, under “in CCOCC”, the absorption maximum stood at 591 nm.

On to `CCCC1(CCC)c2cc(-c3ccc(C(C)(C)C)cc3)ccc2-c2ccc(-c3ccc4c(c3)C(CCC)(CCC)c3cc(-c5ccc6c(c5)C(CCC)(CCC)c5cc(-c7ccc8c(c7)C(CCC)(CCC)c7cc(-c9ccc(C(C)(C)C)cc9)ccc7-8)ccc5-6)ccc3-4)cc21`, for which the absorption maximum (in C1CCCCC1) was determined as 366 nm.

In the case of `O=P1(c2ccccc2)c2cc(N3c4ccccc4Oc4ccccc43)ccc2-c2ccc(N3c4ccccc4Oc4ccccc43)cc21`, under “in Cc1ccccc1”, the absorption maximum amounted to 418 nm.

On to `CCC1=C(C)C2=Cc3cc(I)c(I)n3[B-](F)(F)[N+]2=C1C`, for which the absorption maximum runs as follows: (in C1CCCCC1) 542 nm; (in CC(C)=O) 524.5 nm; (in CCO) 529 nm; (in CCOC(C)=O) 528 nm; (in CO) 526.5 nm; (in OCC(F)(F)F) 520 nm.

Regarding `Cc1ccc(/C=C(\c2ccccc2)c2nc3ccccc3s2)cc1`, the absorption maximum is reported as 340 nm (in C1CCCCC1) and 345 nm (in CO).

Compound `c1ccncc1` showed an absorption maximum (in CC1CCCCC1) of 252 nm, an absorption maximum (in ClC(Cl)Cl) of 253 nm and an absorption maximum (in O) of 253 nm.

The compound `CC[N+](CC)=c1ccc2c(-c3ccccc3C(=O)O)c3c(=O)oc4cc5c(cc4c3oc-2c1)CCCN5C` yielded an absorption maximum (in CCO) of 598 nm, an absorption maximum (in ClC(Cl)Cl) of 610 nm and an absorption maximum (in O) of 601 nm.

Consider `CCCC1=Cc2nc1ccc1[nH]c(cc1CCC)c1nc(c(NC(C)=O)cc3[nH]c2cc3CCC)C(CCC)=C1`, for which the absorption maximum (in Cc1ccccc1) amounted to 639 nm.

Regarding `CCCCCCN(c1ccccc1)c1ccc(/C=C/c2cc(=O)oc3cc(C)ccc23)cc1`, the absorption maximum by setting is: (in CS(C)=O) 432 nm; (in ClC(Cl)Cl) 424 nm.

In the case of `CN1C(=O)/C(=C/c2ccncc2)N=C1/C=C/c1ccccc1`, the absorption maximum (in C1COCCO1) was 411 nm; the absorption maximum (in CC#N) was 408 nm; the absorption maximum (in CCO) came to 411 nm; the absorption maximum (in CCOC(C)=O) is reported as 408 nm; the absorption maximum (in O) was 408 nm.

Compound `CCNc1ccc2c(c1)C(C)(C)C(=O)C=C2` had an absorption maximum (in O) of 402 nm.

The compound `O=P1(c2ccccc2)C(c2ccsc2)=C(c2ccsc2)c2ccccc21` (stereo not given) returned an absorption maximum (in C1CCOC1) of 355 nm.

Take `Cc1ccc(C#Cc2ccc3ccc(=O)oc3c2)cc1`: the absorption maximum (in CC#N) is given as 304 nm.

With `COc1ccc(N(c2ccccc2)c2ccccc2)cc1`, under “in Cc1ccccc1”, the absorption maximum was determined as 299 nm.

With `O=c1oc2ccccc2c2c1c(=O)oc1cc(O)ccc12`, the absorption maximum turned out to be 376 nm (in CS(C)=O) and 374 nm (in ClCCl).

As for `C=CCNc1ccc2ccc3oc4cc(=O)ccc-4nc3c2c1`, the absorption maximum runs as follows: (in CC#N) 537 nm; (in CCO) 531 nm; (in ClCCl) 539 nm; (in O) 522 nm.

For the setting “in CO”, `CC1(C)C(/C=C/C2=C(Cl)C(=C/C=C3/N(Cc4ccc(F)cc4)c4ccccc4C3(C)C)/CCC2)=[N+](Cc2ccc(F)cc2)c2ccccc21` yielded an absorption maximum of 784 nm.

`CON(OC)c1cc2c3cc(-c4c(C)cc(C)cc4C)cc4c5cc(-c6c(C)cc(C)cc6C)cc6c7cc(B(c8c(C)cc(C)cc8C)c8c(C)cc(C)cc8C)cc8c9cc(-c%10c(C)cc(C)cc%10C)cc%10c%11cc(-c%12c(C)cc(C)cc%12C)cc%12c(c1)c2c1c(c43)c(c65)c(c78)c(c9%10)c1c%11%12` registered an absorption maximum (in C1CCOC1) of 452 nm; an absorption maximum (in CC(C)=O) of 445 nm; an absorption maximum (in CCCCCC) of 453 nm; an absorption maximum (in Cc1ccccc1) of 461 nm; an absorption maximum (in ClC(Cl)Cl) of 449 nm; an absorption maximum (in ClCCl) of 450 nm.

For the compound `COc1ccc(-c2cc(/C=C/c3ccc(N(c4ccccc4)c4ccccc4)cc3)c(C#N)c(N3CCCCC3)c2)cc1`, for the setting “in CS(C)=O”, the absorption maximum was 398 nm.

With `CCCCCCC(CCCCCC)N1C(=O)c2cccc3c(-c4ccc(N(C)C)cc4)ccc(c23)C1=O`, the absorption maximum was 401.2 nm (in CCCCCC); 403.8 nm (in CCCCCCCCCCCCCC); 428.6 nm (in CCCCCCCCCCCO); 430.2 nm (in CCCCO); 433.8 nm (in CN(C)C=O); 418.2 nm (in Cc1ccccc1). For the same compound, where the note is “in ClC(Cl)Cl”, the absorption maximum is given as 426.2 nm.

In the case of `CC1(C)CC(=O)C2=C(C1)Oc1ccc3ccccc3c1C2c1ccccn1` (stereo not given), the absorption maximum runs as follows: (in C1CCOC1) 275 nm; (in C1COCCO1) 274 nm; (in CC#N) 275 nm; (in CCCCCCC) 274 nm; (in CCO) 274 nm; (in CO) 275 nm. The absorption maximum (in O) stood at 264 nm.

Consider `c1cc2c3cc1c1ccc4c(c1)c1cc(ccc1[C@]15OCCO[C@]41OCCO5)c1ccc4c(c1)c1cc(ccc1[C@]15OCCO[C@]41OCCO5)c1ccc(c3c1)[C@]13OCCO[C@]21OCCO3`, for which, under “in Cc1ccccc1”, the absorption maximum is 300 nm.

Compound `O=C1/C(=C2\Sc3ccc(S(=O)(=O)Nc4ccccc4)cc3C2=O)Sc2ccc(S(=O)(=O)Nc3ccccc3)cc21` yielded an absorption maximum (in C1COCCO1) of 534 nm, an absorption maximum (in CN(C)C=O) of 542 nm, an absorption maximum (in CO) of 536 nm and an absorption maximum (in CS(C)=O) of 546 nm.

`C[C@]12SC(=O)C=C1c1nc(-c3ccc(Cl)cc3)[nH]c1C1=CC(=O)S[C@@]12C`: under “in CC#N”, the absorption maximum is reported as 451 nm.

In turn, `O=C1OC(=O)c2cc(Oc3ccccc3)c3c4ccc5c6c(cc(Oc7ccccc7)c(c7ccc1c2c73)c64)C(=O)OC5=O` returned an absorption maximum (in C1CCOC1) of 516 nm, an absorption maximum (in CN1CCCC1=O) of 529 nm and an absorption maximum (in CN(C)C=O) of 530 nm.

`COc1ccc(-c2cc(-c3ccc(C)cc3)c(C#N)c(OC)n2)cc1`: the absorption maximum reads like this: (in C1CCOC1) 339 nm; (in CC#N) 338 nm; (in CC(C)=O) 340 nm; (in CCCCCC) 334 nm; (in CCOC(C)=O) 335 nm; (in CN(C)C=O) 343 nm. The absorption maximum was found to be 338 nm (in CO), 344 nm (in CS(C)=O) and 341 nm (in ClC(Cl)Cl).
